Data reported in patent publication US11213538B2, “Agent for overcoming immunosuppression and use thereof” (GENERAL INCORPORATED ASSOCIATION PHARMA VALLEY PROJECT …, priority 2016, dated 2022).

Experiments:
FOXP3 = target: T1, FOXP3 (Homo sapiens, UniProt Q9BZS1); experiment: FOXP3 function inhibitory activity, NF-κB luciferase reporter in HEK293/NF-κB-RE/FOXP3 cells with TNF-alpha; assay type: cell-based; settings: for Chemiluminescence intensity ratio (HEK293/NF-κB-RE/FOXP3 cells / HEK293/NF-κB-RE cells): DMSO control = 1.0
T1 construct: expressed in transfected cells
T1 sequence (Q9BZS1 1-431): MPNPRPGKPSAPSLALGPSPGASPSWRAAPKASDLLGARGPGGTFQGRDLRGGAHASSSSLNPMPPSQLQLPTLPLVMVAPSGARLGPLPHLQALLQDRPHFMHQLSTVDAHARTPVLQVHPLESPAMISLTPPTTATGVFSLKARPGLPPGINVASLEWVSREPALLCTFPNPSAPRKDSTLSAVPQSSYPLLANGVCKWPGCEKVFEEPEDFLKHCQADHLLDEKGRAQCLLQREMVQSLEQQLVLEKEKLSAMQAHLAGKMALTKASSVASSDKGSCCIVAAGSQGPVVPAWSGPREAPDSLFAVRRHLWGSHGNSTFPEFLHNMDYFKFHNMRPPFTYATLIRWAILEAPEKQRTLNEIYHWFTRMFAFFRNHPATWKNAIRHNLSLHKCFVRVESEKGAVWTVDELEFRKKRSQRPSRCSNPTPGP
Protocol: Into HEK293/NF-κB-RE cells, pcDNA3.1-FOXP3 (Department of Cancer vaccine therapy/Immuno-gene therapy, Mie University Graduate School of Medicine), which is a FOXP3 gene expression vector, was introduced, and the cells were subjected to a selection through culture in a medium containing 0.5 mg/mL G418 for 3 weeks. The obtained single clone was isolated and established as a stable line. For culture, DMEM containing 10% heat inactivated […], 0.2 mg/mL Hygromycin B, and 0.5 mg/mL G418 was used.
A cell suspension of 1.875×10^5 cells/mL was prepared for HEK293/NF-κB-RE/FOXP3 cells and HEK293/NF-κB-RE cells, respectively, using DMEM with 10% heat inactivated FBS and without phenol red (medium for assay). The cell suspension was seeded into a 96 well white microplate (nunc) at 80 μL/well (1.5×10^4 cells/well) and the cells were cultured overnight under the conditions of 37° C. and 5% CO2.
A DMSO solution of a test drug with a concentration of 1000 times the final concentration was diluted 100 times with the medium for assay to prepare a test drug solution with a concentration of 10 times the final concentration (a 10 times concentration test drug solution). To each well into which the cell suspension was seeded, 10 μL of the 10 times concentration test drug solution was added and treatment was carried out under the conditions of 37° C. and 5% CO2 for an hour (10 μL of a 1% DMSO solution was added to the control at this time).
Recombinant Human TNF-alpha (R&D Systems) was made to 100 μg/mL with 0.1% BSA-containing PBS, and was further diluted with the medium for assay to prepare a 3 ng/mL TNF-alpha solution. To each well described above, 10 μL of the 3 ng/mL TNF-alpha solution was added, and stimulation was performed under the conditions of 37° C. and 5% CO2 for 2.5 hours (the final concentration of TNF-alpha: 0.3 ng/mL).
The culture supernatant was removed, and the cells were washed once with 100 μL of the medium for assay. After adding 100 μL of the medium for assay, 50 μL of Steady-Glo (Promega Corporation) was added. The microplate was shaken for 10 minutes on a plate shaker with the light blocked. After shaking, the chemiluminescence intensity was measured by ARVO Light plate reader (Perkin Elmer). It should be noted that each test was carried out three times. The results obtained by using HEK293/NF-κB-RE/FOXP3 cells are shown in FIG. 1(A) and the results obtained by using HEK293/NF-κB-RE cells are shown in FIG. 1(B).
The FOXP3 inhibitory activity was evaluated in the same method as that in Example 1 except that the test drug was changed to epirubicin, pirarubicin, daunorubicin, doxorubicin, or idarubicin. The final concentration of each test drug was 0.01, 0.03, 0.1, 0.3 or 1 μM (only epirubicin and doxorubicin were tested also at 1 μM, and idarubicin was tested only at 0.01 and 0.03 μM).
Furthermore, the chemiluminescence intensity ratio was calculated by the Formula 1 below. The test was carried out three times. Chemiluminescence intensity ratio=(chemiluminescence intensity measured when HEK293/NF-κB-RE/FOXP3 cells were used)/(chemiluminescence intensity measured when HEK293/NF-κB-RE cells were used) [Formula 1] 3. Results

HEK293/NF-κB-RE cells = experiment: NF-κB luciferase reporter in HEK293/NF-κB-RE cells without FOXP3, with TNF-alpha; assay type: cell-based, human; settings: epirubicin 0.003-1 μM, TNF-alpha 0.3 ng/mL, FIG. 1(B)
Source text: Herein, the activity of inhibiting FOXP3 function can be evaluated by preparing HEK293 cells (HEK293/NF-κB-RE cells) into which a luciferase reporter vector has been stably introduced and cells (HEK293/NF-κB-RE/FOXP3 cells) obtained by stably introducing the FOXP3 gene into the HEK293/NF-κB-RE cells, adding a test drug and TNF-alpha (TNF-α) thereto, followed by culture, and measuring a difference in chemiluminescence intensity in each cell group.
Into a human embryonic kidney-derived cell line HEK293 (RIKEN CELL BANK), pGL4.32 [luc2P/NF-κB-RE/Hygro] (Promega Corporation), which is a luciferase reporter vector, was introduced, and the cells were subjected to a selection through culture in a medium containing 0.2 mg/mL Hygromycin B for 3 weeks. The obtained single clone was isolated and established as a stable line. For culture, DMEM (Dulbecco's Modified Eagle's Medium) containing 10% heat inactivated FBS and 0.2 mg/mL Hygromycin B was used.
A cell suspension of 1.875×10^5 cells/mL was prepared for HEK293/NF-κB-RE/FOXP3 cells and HEK293/NF-κB-RE cells, respectively, using DMEM with 10% heat inactivated FBS and without phenol red (medium for assay). […]
The culture supernatant was removed, and the cells were washed once with 100 μL of the medium for assay. […] After shaking, the chemiluminescence intensity was measured by ARVO Light plate reader (Perkin Elmer). […]

mouse regulatory T cells = experiment: Overcoming immunosuppressive action of mouse regulatory T cells: growth of CFSE-stained CD8+ T cells co-cultured with epirubicin-treated CD4+CD25+ T lymphocytes; assay type: cell-based, BALB/c mice; settings: in the presence of regulatory T cells treated with epirubicin at a low dose not showing cytotoxicity, FIG. 2
Protocol: Anti-CD3 antibody (1 μg/mL, manufactured by eBioscience) was added to a 12 well flat-bottom plate and the plate was left to stand at 4° C. overnight, and then washed with RPMI 1640 medium. Spleen was isolated from BALB/c mice, and CD4^+CD25^+ T lymphocytes were isolated using a mouse regulatory T cell isolation kit (manufactured by Miltenyi Biotec) and autoMACS separator (manufactured by Miltenyi Biotec). To the 12 well flat-bottom plate coated with anti-CD3 antibody, seven hundred thousand CD4^+CD25^+ T lymphocytes per well were added, and anti-CD28 antibody (manufactured by eBioscience) and IL-2 (NOVARTIS) were added so that the concentrations were 1 μg/mL and 60 IU/mL, respectively. Next, epirubicin was added at various concentrations and the lymphocytes were cultured in an incubator at 37° C. for 48 hours and then washed with a 10% FBS supplemented RPMI 1640 medium.
Anti-CD3 antibody (1 μg/mL, manufactured by eBioscience) was added to a 96 well flat-bottom plate and the plate was left to stand at 4° C. overnight, and then washed with RPMI 1640 medium. […] The lymphocytes were collected and washed with PBS containing 0.5% BSA, and then stained with anti-CD8-APC antibody (manufactured by eBioscience) and analyzed using FACS Canto II flow cytometer (manufactured by Becton Dickinson).

[1] = system: CD4+FOXP3+ and CD4+FOXP3− tumor-infiltrating lymphocytes; experiment: IFN-γ positive cells among tumor-infiltrating lymphocytes of CMS5a tumor-bearing mice; assay type: in vivo, BALB/c mice; settings: epirubicin 0.1, 0.3, 1 mg/kg intravenously on days 3, 5, 7, TIL collected day 8
Protocol: CMS5a cells were transplanted under the skin in the posterodorsal region of female BALB/c mice (8 mice per group) on day 0. […] On day 8, the mice were euthanized and tumors were collected. Using gentle MACS dissociator (manufactured by Miltenyi Biotec) in accordance with the instruction manual, tumor-infiltrating lymphocytes (TIL) were separated from the tumors. The collected cells were seeded into a 24 well plate and stimulated with phorbol 12-myristate 13-acetate (PMA) and ionomycin under the condition of 37° C. for an hour, and then cultured with GolgiPlug (BD Biosciences) for 6 hours. After collecting the cells, the cells were stained with PreCP-CyTM5.5 rat anti-mouse CD4 antibody (manufactured by BD Pharmingen) and V500 rat anti-mouse CD8a antibody (manufactured by BD Horizon) under the condition of 4° C. for 15 minutes. The stained cells were fixed with Fixation/Permeabilization Concentrate and Diluent (1:3, manufactured by eBioscience) under the condition of 4° C. overnight. […] The stained cells were analyzed using FACS Canto II flow cytometer (manufactured by Becton Dickinson).

[2] = test drug concentration 0.01 (μM)
[3] = test drug concentration 0.03 (μM)
[4] = test drug concentration 0.1 (μM)
[5] = test drug concentration 0.3 (μM)

SMILES | Chemiluminescence intensity ratio (HEK293/NF-κB-RE/FOXP3 cells / HEK293/NF-κB-RE cells) (FOXP3; [2]) | Chemiluminescence intensity ratio (HEK293/NF-κB-RE/FOXP3 cells / HEK293/NF-κB-RE cells) (FOXP3; [3]) | Chemiluminescence intensity ratio (HEK293/NF-κB-RE/FOXP3 cells / HEK293/NF-κB-RE cells) (FOXP3; [4]) | Chemiluminescence intensity ratio (HEK293/NF-κB-RE/FOXP3 cells / HEK293/NF-κB-RE cells) (FOXP3; [5]) | Chemiluminescence intensity ratio (HEK293/NF-κB-RE/FOXP3 cells / HEK293/NF-κB-RE cells) (FOXP3; test drug concentration 1 (μM)) | FOXP3 inhibitory activity (Example 2, in words) (FOXP3; 0.01-1 μM, Table 2) | inhibition of FOXP3 function (conclusion of Example 1) (FOXP3; FOXP3 cells compared with cells without FOXP3) | chemiluminescence intensity compared to control (FOXP3; HEK293/NF-κB-RE/FOXP3 cells, 0.1 μM) | chemiluminescence intensity compared to control (FOXP3; HEK293/NF-κB-RE/FOXP3 cells, 0.3 or 1 μM) | chemiluminescence intensity (FOXP3; HEK293/NF-κB-RE/FOXP3 cells, epirubicin 0.003-1 μM, TNF-alpha 0.3 ng/mL, FIG. 1(A)) | chemiluminescence intensity (HEK293/NF-κB-RE cells) | growth rate of CD8+ T cells (mouse regulatory T cells) | proportion of IFN-γ positive cells to CD4+FOXP3+ cells ([1]; FIG. 3(A)) | proportion of IFN-γ positive cells to CD4+FOXP3− cells ([1]; FIG. 3(B))
COc1cccc2c1C(=O)c1c(O)c3c(c(O)c1C2=O)C[C@@](O)(C(C)=O)C[C@@H]3O[C@H]1C[C@H](N)[C@H](O)[C@H](C)O1 [Daunorubicin, daunorubicin] | 1.09 | 1.12 | 1.82 | 2.07 |  |  |  |  |  |  |  |  |  | 
COc1cccc2c1C(=O)c1c(O)c3c(c(O)c1C2=O)C[C@@](O)(C(=O)CO)C[C@@H]3O[C@H]1C[C@H](N)[C@H](O)[C@H](C)O1 [Doxorubicin, doxorubicin] | 0.97 | 1.08 | 1.14 | 1.29 | 1.38 |  |  |  |  |  |  |  |  | 
COc1cccc2c1C(=O)c1c(O)c3c(c(O)c1C2=O)C[C@@](O)(C(=O)CO)C[C@@H]3O[C@H]1C[C@H](N)[C@@H](O)[C@H](C)O1 [Epirubicin, epirubicin] | 1.29 | 1.39 | 1.42 | 1.62 | 2.37 | increased in a concentration-dependent manner | selectively inhibited FOXP3 function | significantly high as compared to that in the control at P<0.05 | significantly high as compared to that in the control at P<0.01 | increased in an epirubicin concentration-dependent manner | concentration-dependent changes were not observed | increased in a concentration-dependent manner | increased in a concentration-dependent manner | did not vary
CC(=O)[C@]1(O)Cc2c(O)c3c(c(O)c2[C@@H](O[C@H]2C[C@H](N)[C@H](O)[C@H](C)O2)C1)C(=O)c1ccccc1C3=O [Idarubicin, idarubicin] | 1.02 | 1.21 |  |  |  |  |  |  |  |  |  |  |  | 
COc1cccc2c1C(=O)c1c(O)c3c(c(O)c1C2=O)C[C@@](O)(C(=O)CO)C[C@@H]3O[C@H]1C[C@H](N)[C@H](O[C@@H]2CCCCO2)[C@H](C)O1 [Pirarubicin, pirarubicin] | 1.03 | 1.08 | 1.53 | 1.50 |  |  |  |  |  |  |  |  |  | 
